Results published in article PMC7175122 (Biomolecules, 2020).
Entries after “also recorded” stand apart in the source; their conditions may differ. Where two headings read alike, the source gives them in different places. Square brackets hold non-standard residues; d marks the D form. Side chains are listed from the residue outwards. Peptide text beside a SMILES is read from it. hArg = N=C(N)NCCCC[C@H](N)C(=O)O; ΔPro = O=C(O)[C@@H]1C=CCN1; Dab = NCC[C@H](N)C(=O)O; Dhp = not defined here

How the values were obtained:
VEGF-A165/NRP-1 complex [1] = molecular target: T1, VEGF-A165/NRP-1 complex (Homo sapiens, UniProt O14786); test: Competitive NRP-1-binding assay (bt-VEGF-A165/NRP-1 complex inhibition, chemiluminescent detection); conditions: for IC50: inhibition of VEGF-A165/NRP-1 complex formation; for inhibition values (plateau): 1–50 μM concentrations, IC50 not calculable in this range
T1 construct: purchased R&D Systems (Minneapolis, MN, USA)
T1 sequence (O14786 22-641 limits assumed): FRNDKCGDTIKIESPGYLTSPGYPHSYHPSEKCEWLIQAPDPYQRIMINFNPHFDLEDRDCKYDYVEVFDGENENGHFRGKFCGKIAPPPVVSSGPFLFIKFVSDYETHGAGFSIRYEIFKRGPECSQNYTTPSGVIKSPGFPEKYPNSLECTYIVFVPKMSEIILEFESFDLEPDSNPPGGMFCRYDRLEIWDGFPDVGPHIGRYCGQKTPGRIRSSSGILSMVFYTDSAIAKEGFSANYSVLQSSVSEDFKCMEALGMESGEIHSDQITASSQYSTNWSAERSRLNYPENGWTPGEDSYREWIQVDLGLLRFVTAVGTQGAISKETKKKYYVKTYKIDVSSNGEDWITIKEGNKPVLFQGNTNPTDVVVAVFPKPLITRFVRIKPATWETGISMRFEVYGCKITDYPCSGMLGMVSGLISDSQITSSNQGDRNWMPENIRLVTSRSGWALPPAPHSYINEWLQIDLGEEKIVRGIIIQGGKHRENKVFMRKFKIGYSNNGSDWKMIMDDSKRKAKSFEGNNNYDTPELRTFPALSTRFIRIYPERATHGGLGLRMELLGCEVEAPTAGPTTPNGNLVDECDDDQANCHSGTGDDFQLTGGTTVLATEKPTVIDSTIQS
Protocol: The method used was similar to the one previously described. The first step was a coating of a 96-well plate using 100 μL (200 ng/well) of recombinant human NRP-1. After overnight incubation at 4 °C, nonspecific binding was blocked with 0.5% BSA in PBS. Next, 50 µL of peptide in PBS in selected concentrations and 50 µL of human (bt)-VEGF-A165 (400 ng/mL) in PBS containing 4 µg/mL of heparin were added and incubated for 2 h at r.t. After washing, wells were treated with streptavidin-horseradish peroxidase conjugate in PBS (1:8000) for 45 min. Final washing was followed by an addition of 100 µL chemiluminescent substrate and the immediate quantitative determination of the luminescence. Wells incubated with (bt)-VEGF-A165 only served as a positive control (P), while not-coated by NRP-1 wells were used for a negative control (NS). Percentages of inhibition were calculated by the following formula:100% − [[(S − NS)/(P − NS)]·100%],(1) where S is the signal intensity obtained from wells incubated with the peptide. Presented data are the mean ± SEM of two or three independent experiments, each performed in triplicate.
IC50 of the peptides were calculated using the nonlinear regression function with Prism (GraphPad Software, San Diego, CA, USA). The same software was used to calculate and present the plasma stability assay results. All results are represented as an average, with error bars indicating ± SEM.
Peptides were tested by the bt-VEGF-A165/NRP-1 complex inhibition assay with chemiluminescent detection, as previously described. […] The amino acid was inserted in the same places as the Cys-Asp fragment previously. Compounds 3 and 4 were tested by the bt-VEGF-A165/NRP-1 inhibition assay at 1–50 μM concentrations.
2. Dose-response curves of synthesized peptides
The concentration-dependent inhibitory dose-curve data were plotted as the percentage inhibition normalized to the controls, with the applied curve fits calculated using GraphPad Prism (Version 5.01, GraphPad software). Data are presented as log(inhibitor) versus a normalized response-variable slope. Error bars represent means +/- SEM for two or three independent experiments. […]

[2] = Degradation assay in human plasma (enzymatic stability); type: in vitro ADME; conditions: human blood plasma, 37 °C; for remaining at 24 h: after 24 h, read-out: initial concentration still present in plasma; for remaining at 96 h: after 96 h, read-out: concentration remaining in plasma
Protocol: This assay was performed according to the method described previously. First, human blood plasma was preactivated in an Eppendorf ThermoMixer® Comfort (Hamburg, Germany) for 20 min at 37 °C (350 rpm). Next, the peptide dissolved in water (6 mg/mL; ~5 μmol/mL) was mixed with human plasma (~1 μmol/mL final concentration) and incubated in the same conditions. One-hundred microliters of the mixture was collected in 1.5-mL microtubes at selected time intervals (0–96 h), followed by protein precipitation by adding 100 μL of 98% ethanol and by vortexing for 1 min (3000 min^−1). Samples were centrifuged for 10 min at 4 °C (11,000 g), and 100 μL of supernatant was collected and lyophilized. Reconstituted in 100 μL of water, samples were subjected to RP-HPLC analysis. LC-MS analyses with a Shimadzu LCMS-2020 mass spectrometer (Duisburg, Germany) were done for selected samples. A detailed description of the method can be found in the Supplementary Materials. All results are represented as an average, with error bars indicating ± SEM determined from the results of two independent experiments performed in duplicates.
Compounds were incubated in human plasma at 37 °C, and at selected time intervals, samples were analyzed using RP-HPLC and LC-MS, as described previously. […] After 24 h, almost 50% of each compound’s initial concentration was still present in the plasma. Following the next time intervals, we observed a significant degradation of peptide 3 (~20% after 96 h) but a much slower decrease in the concentration of peptide 4 (~40% after 96 h). This is probably due to the slower detachment of Cys residue from the side chain (peptide 4) compared to detachment from the main chain (peptide 3). […] However, unmodified peptides tend to have short half-lives counted rather in minutes, e.g., ghrelin [48] and endomorphins, and modifications lead to extending this time often to only a few hours.
Table S4. Confidence intervals (95%) determined for calculated IC50.
Compound IC50 (µM) 95% Confidence Intervals
3. Analytical data of serum degradation
Analysis of plasma degradation products was carried out by HPLC-ESI-Q-MS with a Prominence HPLC system (binary pump system LC-20AD and autosampler SIL-20AC HT coupled to a SPD-20A UV detector and LCMS-2020 quadrupole mass detector).
Chromatographic separation was achieved on a Phenomenex Jupiter Proteo C12 column (250 × 4.6 mm) at 35 °C. Mobile phases consisted of H2O:TFA (99.95:0.05 v/v, phase A) and ACN:TFA (99.95:0.05 v/v, phase B) at a flow rate of 1.2 mL/min. […]
Elution was performed with a gradient as follows: t = 25 min., 0%–25% B. The injection volume was 15 μl. UV spectra were recorded at 190 nm.
The electrospray ionization (ESI) was operated in positive mode. […]

VEGF-A165/NRP-1 complex [3] = molecular target: T1, VEGF-A165/NRP-1 complex; conditions: cited from earlier work; for inhibition of the formation of the VEGF-A165/NRP-1 complex: concentration of 100 μM
PBS = conditions: 22 °C, up to 4 h
human blood plasma = conditions: 37 °C, up to 96 h
[4] = parameters: method as in PMID 30881620; conditions: human plasma; cited from earlier work
[5] = mean ± SEM, read-out: logIC50 (converted)
[6] = reference peptide, read-out: RP IC50

Molecule: N=C(N)NCCCC[C@H](N)C(=O)NCCCC[C@H](NC(=O)[C@H](CC(=O)O)NC(=O)[C@@H](N)CS)C(=O)N[C@@H](CCN)C(=O)N1CC=C[C@H]1C(=O)N[C@@H](CCCNC(=N)N)C(=O)O [Compound 1, H-Cys-Asp-Lys(hArg)-Dab-Dhp-Arg-OH] (H-CDK(hArg)[Dab][ΔPro]R-OH)
- IC50 (VEGF-A165/NRP-1 complex [1]; read-out: IC50): 2.5 µM

Molecule: N=C(N)NCCCC[C@H](NC(=O)[C@H](CC(=O)O)NC(=O)[C@@H](N)CS)C(=O)NCCCC[C@H](N)C(=O)N[C@@H](CCN)C(=O)N1CC=C[C@H]1C(=O)N[C@@H](CCCNC(=N)N)C(=O)O [Compound 2, H-Lys(Cys-Asp-hArg)-Dab-Dhp-Arg-OH] (H-K([hArg-Asp-Cys])[Dab][ΔPro]R-OH)
- IC50 (VEGF-A165/NRP-1 complex [1]; read-out: IC50): 2 µM

Molecule: N=C(N)NCCCC[C@H](N)C(=O)NCCCC[C@H](NC(=O)[C@@H](N)CS)C(=O)N[C@@H](CCN)C(=O)N1CC=C[C@H]1C(=O)N[C@@H](CCCNC(=N)N)C(=O)O [Compound 3, H-Cys-Lys(hArg)-Dab-Dhp-Arg-OH] (H-CK(hArg)[Dab][ΔPro]R-OH)
- inhibition values (plateau) (VEGF-A165/NRP-1 complex [1]): ~ 80%
- IC50 (VEGF-A165/NRP-1 complex [1]; [5]): 0.0834 µM
- remaining at 24 h [2]: ~50%
- remaining at 96 h [2]: ~20%

Molecule: N=C(N)NCCCC[C@H](NC(=O)[C@@H](N)CS)C(=O)NCCCC[C@H](N)C(=O)N[C@@H](CCN)C(=O)N1CC=C[C@H]1C(=O)N[C@@H](CCCNC(=N)N)C(=O)O [Compound 4, H-Lys(Cys-hArg)-Dab-Dhp-Arg-OH] (H-K([hArg-Cys])[Dab][ΔPro]R-OH)
- inhibition values (plateau) (VEGF-A165/NRP-1 complex [1]): ~ 80%
- IC50 (VEGF-A165/NRP-1 complex [1]; [5]): 0.064 µM
- remaining at 24 h [2]: ~50%
- remaining at 96 h [2]: ~40%

Molecule: C[C@@H](O)[C@H](N)C(=O)N[C@@H](CCCCN)C(=O)N1CCC[C@H]1C(=O)N[C@@H](CCCNC(=N)N)C(=O)O [Tuftsin, TKPR, reference compound] (H-TKPR-OH; N-terminus and C-terminus assumed)
- IC50 (VEGF-A165/NRP-1 complex [3]; [6]): ≥ 100 µM
- inhibition at 100 µM (VEGF-A165/NRP-1 complex [1]; 100 µM concentration, read-out: percentage inhibitory effect): 46%
- IC50 (VEGF-A165/NRP-1 complex [1]; read-out: IC50): 100 µM

Molecule: CDKPRR
- inhibition of the formation of the VEGF-A165/NRP-1 complex (VEGF-A165/NRP-1 complex [3]): ~100%

Molecule: DKPRR [CDKPRR lacking the N-terminal Cys]
- percentage of inhibition of VEGF-A165/NRP-1 interaction (VEGF-A165/NRP-1 complex [3]; at 100 µM): ~ 20%
- IC50 (VEGF-A165/NRP-1 complex [3]; [6]): > 100 µM

Molecule: ERTCDKPRR [fragment of the VEGF-A165 domain encoded by exons 7 and 8]
- inhibition of the formation of the VEGF-A165/NRP-1 complex (VEGF-A165/NRP-1 complex [3]): ~100%

Molecule: H-CKPRR-OH [Compound 7, CKPRR]
- IC50 (VEGF-A165/NRP-1 complex [1]; [5]): 0.187 µM

Molecule: H-CLPPR-OH [Compound 5, CLPPR]
- IC50 (VEGF-A165/NRP-1 complex [1]; read-out: IC50): 11.4 µM
- fold decrease of IC50 compared to the A7R peptide (VEGF-A165/NRP-1 complex [1]; vs A7R): seven-fold

Molecule: H-CTKPR-OH [Compound 6, CTKPR]
- IC50 (VEGF-A165/NRP-1 complex [1]; read-out: IC50): 9.3 µM
- fold increase of ligand affinity compared to tuftsin (VEGF-A165/NRP-1 complex [1]; vs tuftsin): more than 11 fold

Molecule: H-Cys-Lys(hArg)-Dab-Dhp-Arg-OH (H-CK(hArg)[Dab][ΔPro]R-OH; SMILES N=C(N)NCCCC[C@H](N)C(=O)NCCCC[C@H](NC(=O)[C@@H](N)CS)C(=O)N[C@@H](CCN)C(=O)N1CC=C[C@H]1C(=O)N[C@@H](CCCNC(=N)N)C(=O)O)
- fragment found (PBS): dimer, minor, 4 h
- cleaved bond (human blood plasma): Cys-Lys, first_seen; also recorded: hArg-Lys; also recorded: Lys-Dab

Molecule: H-Lys(Cys-hArg)-Dab-Dhp-Arg-OH (H-K([hArg-Cys])[Dab][ΔPro]R-OH)
- fragment found (PBS): dimer, minor, 4 h
- cleaved bond (human blood plasma): Cys-hArg, first_seen; also recorded: hArg-Lys; also recorded: Lys-Dab

Molecule: H-Lys(hArg)-Dab-Dhp-Arg-OH (H-K(hArg)[Dab][Dhp]R-OH; reading uncertain; also: printed as H-Lys(hArg)-Dab-Dhp-Arg-OH) [PP, parent branched peptide, previously published NRP-1 ligand]
- IC50 (VEGF-A165/NRP-1 complex [3]; parent peptide, data already published, read-out: IC50): 4.3 µM

Molecule: H-Lys(hArg)-Dab-Dhp-Arg-OH [PP]
- t1/2 [4]: 51 h

Molecule: LPPR
- share of A7R inhibition of NRP-1 activation by VEGF-A165 for which the sequence is responsible (VEGF-A165/NRP-1 complex [3]): 75%
